Data taken from US20250171430A1, “PYRAZOLYL COMPOUNDS AS KV7 CHANNEL ACTIVATORS” (Biohaven Therapeutics Ltd., priority 2022, published 2025).

Biological target: T1, Kv7.2/7.3 (Homo sapiens, UniProt O43525+O43526)
T1 construct: Kv7.2 tetracycline-induced, Kv7.3 constitutive
Test: Kv7.2/7.3 Activation Assay (Thallium Flux Assay)
Assay type: cell-based
Conditions: hKV7.2/7.3 cell line; test compound at single concentration of 10 μM; fluorescence at 90 sec normalized to positive control (retigabine, 30 μM)
Procedure, shortened: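 Human Kv7.2/7.3 cells with Kv7.2 induced overnight by 10 ng/mL tetracycline were loaded with FluxOR II Green for 1 h at 37 °C. Compounds were tested at 10 μM in 0.1% DMSO/extracellular solution, pH 7.4. Thallium/potassium stimulus was added after a 15 s baseline, and 90 s fluorescence (ex 475/em 530 nm) was normalized to 30 μM retigabine.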

Row | Compound | Kv7.2/7.3 Activity
1 | Cn1nc(NC(=O)CC(C)(C)C(F)(F)F)c(C2CCC2)c1-c1ccc(Cl)s1 [Compound 96, N-(5-(5-chlorothiophen-2-yl)-4-cyclobutyl-1-methyl-1H-pyrazol-3-yl)-4,4,4-trifluoro-3,3-dimethylbutanamide] | ++ (“++” High Activity ≥ 0.7)
2 | Cn1nc(NC(=O)C[C@@H]2CC(F)(F)C2(F)F)c(C2CCC2)c1-c1cc(F)c(F)c(F)c1 [Compound 262, (R)-N-(4-cyclobutyl-1-methyl-5-(3,4,5-trifluorophenyl)-1H-pyrazol-3-yl)-2-(2,2,3,3-tetrafluorocyclobutyl)acetamide] | ++ (“++” High Activity ≥ 0.7)
3 | Cn1nc(NC(=O)C[C@@H]2CC(F)(F)C2(F)F)c(C2CCC2)c1-c1ccc(OC(F)(F)F)cc1 [Compound 30, (R)-N-(4-cyclobutyl-1-methyl-5-(4-(trifluoromethoxy)phenyl)-1H-pyrazol-3-yl)-2-(2,2,3,3-tetrafluorocyclobutyl)acetamide] | ++ (“++” High Activity ≥ 0.7)
4 | Cn1nc(NC(=O)CC(C)(C)O)c(C2CCC2)c1-c1ccc(OC(F)(F)F)cc1 [Compound 55, N-(4-cyclobutyl-1-methyl-5-(4-(trifluoromethoxy)phenyl)-1H-pyrazol-3-yl)-3-hydroxy-3-methylbutanamide] | + (“+” Moderate Activity 0.15-0.7)
5 | N#CCn1nc(NC(=O)C[C@H]2CC(F)(F)C2(F)F)c(C2CCC2)c1-c1ccc(F)cc1 [Compound 46, (S)-N-(1-(cyanomethyl)-4-cyclobutyl-5-(4-fluorophenyl)-1H-pyrazol-3-yl)-2-(2,2,3,3-tetrafluorocyclobutyl)acetamide] | + (“+” Moderate Activity 0.15-0.7)
6 | Cn1nc(NC(=O)C2(C)CC2)c(C2CCC2)c1-c1ccc(Cl)s1 [Compound 152, N-(5-(5-chlorothiophen-2-yl)-4-cyclobutyl-1-methyl-1H-pyrazol-3-yl)-1-methylcyclopropane-1-carboxamide] | ++ (“++” High Activity ≥ 0.7)
7 | Cn1nc(NC(=O)C2(C)CC(F)(F)C2)c(C2CCC2)c1-c1ccc(OC(F)(F)F)cc1 [Compound 200, N-(4-cyclobutyl-1-methyl-5-(4-(trifluoromethoxy)phenyl)-1H-pyrazol-3-yl)-3,3-difluoro-1-methylcyclobutane-1-carboxamide] | + (“+” Moderate Activity 0.15-0.7)
8 | C[C@H](C(=O)Nc1nn(C)c(-c2ccc(OC(F)(F)F)cc2)c1C1CCC1)C1CC(F)(F)C1 [Compound 177, (S)-N-(4-cyclobutyl-1-methyl-5-(4-(trifluoromethoxy)phenyl)-1H-pyrazol-3-yl)-2-(3,3-difluorocyclobutyl)propanamide] | ++ (“++” High Activity ≥ 0.7)
9 | Cn1nc(NC(=O)C23CC(C(F)(F)F)(C2)C3)c(C2CCC2)c1-c1ccc(Cl)s1 [Compound 232, N-(5-(5-chlorothiophen-2-yl)-4-cyclobutyl-1-methyl-1H-pyrazol-3-yl)-3-(trifluoromethyl)bicyclo[1.1.1]pentane-1-carboxamide] | ++ (“++” High Activity ≥ 0.7)
10 | Cn1nc(NC(=O)C[C@H]2CC2(C)C)c(C2CCC2)c1-c1ccc(F)cc1 [Compound 100, (R)-N-(4-cyclobutyl-5-(4-fluorophenyl)-1-methyl-1H-pyrazol-3-yl)-2-(2,2-dimethylcyclopropyl)acetamide] | ++ (“++” High Activity ≥ 0.7)
11 | Cn1nc(NC(=O)C[C@@H]2CC(F)(F)C2(F)F)c(C2CCC2)c1-c1ccc(Cl)s1 [Compound 230, (R)-N-(5-(5-chlorothiophen-2-yl)-4-cyclobutyl-1-methyl-1H-pyrazol-3-yl)-2-(2,2,3,3-tetrafluorocyclobutyl)acetamide] | ++ (“++” High Activity ≥ 0.7)
12 | Cn1nc(NC(=O)CC2(C(F)(F)F)CC2)c(C2CCC2)c1C1(C(F)(F)F)CCC1 [Compound 89, N-(4-cyclobutyl-1-methyl-5-(1-(trifluoromethyl)cyclobutyl)-1H-pyrazol-3-yl)-2-(1-(trifluoromethyl)cyclopropyl)acetamide] | ++ (“++” High Activity ≥ 0.7)
13 | C[C@@H](C(=O)Nc1nn(C)c(-c2ccc(F)cc2)c1C1CCC1)C1CC(F)(F)C1 [Compound 132, (R)-N-(4-cyclobutyl-5-(4-fluorophenyl)-1-methyl-1H-pyrazol-3-yl)-2-(3,3-difluorocyclobutyl)propanamide] | + (“+” Moderate Activity 0.15-0.7)
14 | Cn1nc(NC(=O)C2CC3(C2)CC(F)(F)C3)c(C2CCC2)c1-c1ccc(F)cc1 [Compound 204, N-(4-cyclobutyl-5-(4-fluorophenyl)-1-methyl-1H-pyrazol-3-yl)-6,6-difluorospiro[3.3]heptane-2-carboxamide] | ++ (“++” High Activity ≥ 0.7)
15 | Cn1nc(NC(=O)C[C@@H]2CC(F)(F)C2(F)F)c(C2CCC2)c1C(=O)c1ccccc1 [Compound 44, (R)-N-(5-benzoyl-4-cyclobutyl-1-methyl-1H-pyrazol-3-yl)-2-(2,2,3,3-tetrafluorocyclobutyl)acetamide] | ++ (“++” High Activity ≥ 0.7)
16 | C[C@@H](C(=O)Nc1nn(C)c(-c2ccc(OC(F)(F)F)cc2)c1C1CCC1)C1CC(F)(F)C1 [Compound 178, (R)-N-(4-cyclobutyl-1-methyl-5-(4-(trifluoromethoxy)phenyl)-1H-pyrazol-3-yl)-2-(3,3-difluorocyclobutyl)propanamide] | − (“−” No Activity < 0.15)
17 | Cn1nc(NC(=O)C[C@H]2CC(F)(F)C2(F)F)c(C2CCC2)c1C(F)(F)c1ccccc1 [Compound 39, (S)-N-(4-cyclobutyl-5-(difluoro(phenyl)methyl)-1-methyl-1H-pyrazol-3-yl)-2-(2,2,3,3-tetrafluorocyclobutyl)acetamide] | ++ (“++” High Activity ≥ 0.7)
18 | Cn1nc(NC(=O)C[C@@H]2CC(F)(F)C2(F)F)c(C2CCC2)c1C1CCC(F)(F)CC1 [Compound 273, (R)-N-(4-cyclobutyl-5-(4,4-difluorocyclohexyl)-1-methyl-1H-pyrazol-3-yl)-2-(2,2,3,3-tetrafluorocyclobutyl)acetamide] | ++ (“++” High Activity ≥ 0.7)
19 | CCn1nc(NC(=O)CC(C)(C)O)c(C2CC2)c1C [Compound 4, N-(4-cyclopropyl-1-ethyl-5-methyl-1H-pyrazol-3-yl)-3-hydroxy-3-methylbutanamide] | − (“−” No Activity < 0.15)
20 | Cn1nc(NC(=O)C[C@H]2CC(F)(F)C2(F)F)c(C2CCC2)c1-c1ccc(Cl)s1 [Compound 231, (S)-N-(5-(5-chlorothiophen-2-yl)-4-cyclobutyl-1-methyl-1H-pyrazol-3-yl)-2-(2,2,3,3-tetrafluorocyclobutyl)acetamide] | ++ (“++” High Activity ≥ 0.7)
21 | CC(C)CC1(C(=O)Nc2nn(C)c(-c3ccc(F)cc3)c2C2CCC2)CC1 [Compound 138, N-(4-cyclobutyl-5-(4-fluorophenyl)-1-methyl-1H-pyrazol-3-yl)-1-isobutylcyclopropane-1-carboxamide] | ++ (“++” High Activity ≥ 0.7)
22 | C[C@H](C(=O)Nc1nn(CC(F)(F)F)c(-c2ccc(F)cc2)c1C1CCC1)C1(C(F)(F)F)CC1 [Compound 142, (S)-N-(4-cyclobutyl-5-(4-fluorophenyl)-1-(2,2,2-trifluoroethyl)-1H-pyrazol-3-yl)-2-(1-(trifluoromethyl)cyclopropyl)propanamide] | − (“−” No Activity < 0.15)
23 | Cn1nc(NC(=O)C[C@H]2CC(F)(F)C2(F)F)c(C2CCC2)c1-c1ccc(F)c(F)c1 [Compound 236, (S)-N-(4-cyclobutyl-5-(3,4-difluorophenyl)-1-methyl-1H-pyrazol-3-yl)-2-(2,2,3,3-tetrafluorocyclobutyl)acetamide] | ++ (“++” High Activity ≥ 0.7)
24 | Cn1nc(NC(=O)[C@H]2C[C@@H](C)C2)c(C2CCC2)c1-c1ccc(F)cc1 [Compound 122, (1S,3S)-N-(4-cyclobutyl-5-(4-fluorophenyl)-1-methyl-1H-pyrazol-3-yl)-3-methylcyclobutane-1-carboxamide] | ++ (“++” High Activity ≥ 0.7)
25 | Cn1nc(NC(=O)C23CC(C(F)(F)F)(C2)C3)c(C2CCC2)c1-c1ccc(F)cc1 [Compound 179, N-(4-cyclobutyl-5-(4-fluorophenyl)-1-methyl-1H-pyrazol-3-yl)-3-(trifluoromethyl)bicyclo[1.1.1]pentane-1-carboxamide] | ++ (“++” High Activity ≥ 0.7)
26 | Cn1nc(NC(=O)C2CC(F)(F)C2)c(C2(C)CCC2)c1-c1ccc(F)cc1 [Compound 286, 3,3-difluoro-N-(5-(4-fluorophenyl)-1-methyl-4-(1-methylcyclobutyl)-1H-pyrazol-3-yl)cyclobutane-1-carboxamide] | ++ (“++” High Activity ≥ 0.7)
27 | Cn1nc(NC(=O)C[C@@H]2CC(F)(F)C2(F)F)c(C2CCC2)c1-c1ccc(OC(F)F)nc1 [Compound 283, (R)-N-(4-cyclobutyl-5-(6-(difluoromethoxy)pyridin-3-yl)-1-methyl-1H-pyrazol-3-yl)-2-(2,2,3,3-tetrafluorocyclobutyl)acetamide] | ++ (“++” High Activity ≥ 0.7)
28 | Cn1nc(NC(=O)C[C@H]2CC(F)(F)C2(F)F)c(C2CCC2)c1Cc1ccc(OC(F)(F)F)cc1 [Compound 64, (S)-N-(4-cyclobutyl-1-methyl-5-(4-(trifluoromethoxy)benzyl)-1H-pyrazol-3-yl)-2-(2,2,3,3-tetrafluorocyclobutyl)acetamide] | + (“+” Moderate Activity 0.15-0.7)
